Test results reported in publication PMC12627933, “A First-In-Human Study of the SUMOylation Inhibitor Subasumstat in Patients with Advanced/Metastatic Solid Tumors or Relapsed/Refractory Hematologic Malignancies” (Cancer Research Communications, 2025).

Columns and labels:
[1] = system: macrophages and NK cells; design: method as in PMID 35226739; conditions: IFNI-dependent innate immune activation; cited from earlier work
[2] = system: SUMO2/3 conjugates; assay: SUMOylation pathway inhibition: decrease in SUMO2/3 conjugates in blood lymphocytes, skin and tumor; type: in vivo, human
Protocol: Blood samples for subasumstat–SUMO adduct formation and SUMO2/3 inhibition assessments were collected before dose and at 1, 4, and 8 hours after the infusion on C1D1 and C1D8. Blood samples for additional biomarker analyses were collected before dose on C1D1 and C1D8 and at 4, 8, and 24 hours after infusion on C1D1 and C1D8. Skin biopsies (used as surrogate tissue for solid tumors) were collected at screening and on C1D8 at 2 hours (±30 minutes) after end of infusion, and tumor biopsies were collected at screening and cycle 2 day 8 (C2D8; +7 days; whenever possible). In blood samples, a custom flow cytometry assay was utilized for detecting target engagement and SUMOylated protein levels in lymphocytes (including T-, B-, and NK-cell subsets). The assay included a PE-conjugated antibody specifically recognizing the SUMO–subasumstat adduct (MIL-113, anti–cysteinyl-TAK-981, Epitomics; refs. [14], [15], [22]) and an AF488-conjugated antibody recognizing SUMO2/3 conjugates (MBL International, cat. #M114-3, RRID: AB_592769). Peripheral blood cells were lysed/fixed, permeabilized (BD Biosciences), and stained with MIL-113 and M114-3 and with antibodies against CD45, CD3, CD19, CD16/CD56, and CD14. IHC assays for SUMO–subasumstat adduct and SUMO2/3 inhibition in skin biopsies and tumors were performed using MIL-113 and M114-3 antibodies. Activation of the IFNI pathway was assessed in peripheral blood by analysis of gene expression data (PanCancer IO 360 panel by NanoString for phase I and whole-transcriptome RNA sequencing data for phase II). Type I IFN gene signature was computed using geometric mean of the following genes: CCL2, CXCL10, DDX58, IRF7, ISG15, STAT1, and STAT2. These seven IFNI-regulated genes were selected prior to the trial, based on in vitro studies of the effect of subasumstat on human blood from 10 healthy donors analyzed on the NanoString PanCancer IO 360 panel. Plasma chemokines and cytokines were measured using the MesoScale Discovery platform (pro-inflammatory and chemokine panels, BioAgilytix). For assessment of NK- and T-cell activation, cells were suspended in buffer and incubated with the following monoclonal antibodies: APC-H7 mouse anti–human CD45 (BD Biosciences, cat. #560274), APC mouse anti–human CD69 (BD Biosciences, cat. #555533), BV421 mouse anti–human CD56 (BD Biosciences, cat. #562751), mouse anti–human CD16 PerCP-Cy5.5 (BD Biosciences, cat. #338440), BV510 mouse anti–human CD4 (BD Biosciences, cat. #563094), BV605 mouse anti–human CD8 (BD Biosciences, cat. #564116), and Alexa Fluor 700 anti–mouse CD3 antibody (BioLegend, cat. #100215), prior to assessment by flow cytometry using the BD Scientific FACSCanto flow cytometer (RRID: SCR_018055). Tumor PD-L1 expression level was assessed in paired tumor biopsies using the 22C3 PD-L1 IHC assay; combined positive score (CPS) was calculated for baseline and on-treatment tumor samples. The immune landscape in the tumor microenvironment (TME) was assessed using an integrated RNAscope and 27-marker MultiOmyx immunofluorescence panel.

[3] = system: NK cells and T cells; assay: NK- and T-cell activation (CD69+ cells) in peripheral blood by flow cytometry; type: in vivo, human
Protocol: Blood samples for subasumstat–SUMO adduct formation and SUMO2/3 inhibition assessments were collected before dose and at 1, 4, and 8 hours after the infusion on C1D1 and C1D8. Blood samples for additional biomarker analyses were collected before dose on C1D1 and C1D8 and at 4, 8, and 24 hours after infusion on C1D1 and C1D8. Skin biopsies (used as surrogate tissue for solid tumors) were collected at screening and on C1D8 at 2 hours (±30 minutes) after end of infusion, and tumor biopsies were collected at screening and cycle 2 day 8 (C2D8; +7 days; whenever possible). […] Activation of the IFNI pathway was assessed in peripheral blood by analysis of gene expression data (PanCancer IO 360 panel by NanoString for phase I and whole-transcriptome RNA sequencing data for phase II). […] These seven IFNI-regulated genes were selected prior to the trial, based on in vitro studies of the effect of subasumstat on human blood from 10 healthy donors analyzed on the NanoString PanCancer IO 360 panel. Plasma chemokines and cytokines were measured using the MesoScale Discovery platform (pro-inflammatory and chemokine panels, BioAgilytix). […] Tumor PD-L1 expression level was assessed in paired tumor biopsies using the 22C3 PD-L1 IHC assay; combined positive score (CPS) was calculated for baseline and on-treatment tumor samples. […]

[4] = system: tumor microenvironment (TME); design: method as in PMID 37389981; conditions: intratumor microdosing; cited from earlier work

Question: What does the source list for `Cc1sc(C(=O)c2cncnc2N[C@@H]2C[C@H](COS(N)(=O)=O)[C@@H](O)C2)cc1[C@@H]1NCCc2ccc(Cl)cc21` [subasumstat]?
Answer: Killing of tumor cell targets [1]: enhanced killing of tumor cell targets; Duration of SUMO2/3 inhibition ([2]; peripheral blood lymphocytes): at least 8 hours; Time to SUMO2/3 inhibition after end of infusion ([2]; peripheral blood lymphocytes): ≤ 1 h; Dose from which SUMO2/3 inhibition was observed ([2]; peripheral blood lymphocytes, dose-dependent): ≥ 40 mg; SUMO2/3 inhibition in tumor samples ([2]; post-dose tumor samples, except two MSS colorectal cancer and one NSCLC patient): observed in most post-dose samples; Dose from which reduced SUMO2/3 levels were observed in skin ([2]; skin biopsies on C1D8): ≥ 60 mg; Time of peak CD69+ effect after infusion ([3]; C1D1 and C1D8): 24 h; Dose from which percentage of CD69+ NK and T cells increased ([3]; peripheral blood, both dose schedules and study phases): ≥ 60 mg; Modulation of the TME [4]: modulate the TME from an immune-suppressive to an immune-permissive status
